Like-named read-outs stand apart in the source and are kept apart here.
Tested on: HCV pseudoparticles, genotype 1a (H77C) E1 and E2 envelope
Assay: microbe, parasite or virus in culture
Assay type: cell-based, HCV genotype 1a (H77C isolate)
Conditions: Hepatitis C virus, Huh-7, 48 h, HCV pseudoparticles 1a (H77C), Huh7 cells, luciferase 2 days after infection
[1] = read-out: EC50 (nM) 1a (H77C), Table 1a, class
[2] = read-out: EC50 (nM) 1a (H77C), Table 1a
[3] = read-out: EC50 (nM) 1a (H77C), Table 1b, class
[4] = read-out: EC50 (nM) 1a (H77C), Table 1b

SMILES	EC50 [1] [nM]	EC50 [3] [nM]	further results
O=C1NCCNCCNc2nc(nc(OCC(F)(F)F)n2)Nc2ccc1cc2 [Example 0001]	1000 to 5000		EC50 [2]: 4200 nM
O=C1NCCCCCCCCNc2nc(nc(OCC(F)(F)F)n2)Nc2ccc1cc2 [Example 0002]	0.1 to 100		
O=C1NCCCCCCCCCCNc2nc(nc(OCC(F)(F)F)n2)Nc2ccc1cc2 [Example 0003]	100 to 1000		EC50 [2]: 101 nM
O=C1NCCCOCCCCOCCCNc2nc(nc(OCC(F)(F)F)n2)Nc2ccc1cc2 [Example 0004]	0.1 to 100		EC50 [2]: 48.4 nM
CC(=O)N1CCNC(=O)c2ccc(cc2)Nc2nc(nc(OCC(F)(F)F)n2)NCC1 [Example 0005]	1000 to 5000		
O=C1NCCCCNC(=O)C2(CC2)Nc2nc(nc(OCC(F)(F)F)n2)Nc2ccc1cc2 [Example 0006]	1000 to 5000		
O=C1N[C@H]2CNC[C@@H]2C(=O)NCCCCCCOc2ccc(cc2)CNc2nc(nc(OCC(F)(F)F)n2)Nc2ccc1cc2 [Example 0007]	0.1 to 100		EC50 [2]: 8.31 nM
CN(C)C(N1C[C@@H]2NC(=O)c3ccc(cc3)Nc3nc(nc(OCC(F)(F)F)n3)NCc3ccc(cc3)OCCCCCCNC(=O)[C@H]2C1)=[N+](C)C [Example 0008]	0.1 to 100		
CC(C)(C)OC(=O)N1CCN(CC2CNC(=O)c3ccc(cc3)Nc3nc(nc(OCC(F)(F)F)n3)NCc3ccc(cc3)OC/C=C/CO2)CC1 (stereo not shown) [Example 0009]	100 to 1000		
O=C1NCC(CN2CCNCC2)OC/C=C/COc2ccc(cc2)CNc2nc(nc(OCC(F)(F)F)n2)Nc2ccc1cc2 (stereo not shown) [Example 0010]	1000 to 5000		
O=C1NC(C2CCCNC2)C(=O)NCCCCCCOc2ccc(cc2)CNc2nc(nc(OCC(F)(F)F)n2)Nc2ccc1cc2 (stereo not shown) [Example 0011]	0.1 to 100		EC50 [2]: 62.8 nM
O=C1NCCCCCCCCCCCCNC(=O)c2ccc(cc2)Nc2nc(nc(OCC(F)(F)F)n2)NCc2ccc1cc2 [Example 0034]	1000 to 5000		
O=C1NCCCOCCOCCOCCCNC(=O)c2ccc(cc2)Nc2nc(nc(OCC(F)(F)F)n2)NCc2ccc1cc2 [Example 0036]	1000 to 5000		
O=C1NCCCCCCCCCNC(=O)c2ccc(cc2)Nc2nc(nc(OCC(F)(F)F)n2)NCc2ccc1cc2 [Example 0037]	100 to 1000		
O=C1NCCCCCCCCCCCNC(=O)c2ccc(cc2)Nc2nc(nc(OCC(F)(F)F)n2)NCc2ccc1cc2 [Example 0038]	100 to 1000		EC50 [2]: 840 nM
O=C1CCCCCCCCC(=O)NCc2ccc(cc2)Nc2nc(nc(OCC(F)(F)F)n2)NCc2ccc(cc2)CN1 [Example 0064]	100 to 1000		EC50 [2]: 407 nM
O=C1NS(=O)(=O)C/C=C/CCOc2ccc(cc2)CNc2nc(nc(OCC(F)(F)F)n2)Nc2ccc1cc2 [Example 3004]	1000 to 5000		EC50 [2]: 2940 nM
O=C1NS(=O)(=O)C/C=C/CCCCOc2ccc(cc2)CNc2nc(nc(OCC(F)(F)F)n2)Nc2ccc1cc2 [Example 3006]	1000 to 5000		

SMILES	EC50 [1] [nM]	EC50 [3] [nM]	further results
O=C1CCNC(=O)c2ccc(cc2)Nc2nc(nc(OCC(F)(F)F)n2)NCc2ccc(cc2)OC/C=C/CS(=O)(=O)N1 [Example 3008]	100 to 1000		
O=C1CCNC(=O)c2ccc(cc2)Nc2nc(nc(OCC(F)(F)F)n2)NCc2ccc(cc2)OC/C=C\CS(=O)(=O)N1 [Example 3009]	100 to 1000		
O=C1NCCCNCCCOc2ccc(cc2)C2(CC2)Nc2nc(nc(OCC(F)(F)F)n2)Nc2ccc1cc2 [Example 5001]		0.1 to 100	
CCOC(=O)N1CCCNC(=O)c2ccc(cc2)Nc2nc(nc(OCC(F)(F)F)n2)NC2(CC2)c2ccc(cc2)OCCC1 [Example 5002]		0.1 to 100	
CCC(=O)N1CCCCNC(=O)c2ccc(cc2)Nc2nc(nc(OCC(F)(F)F)n2)NC2(CC2)c2ccc(cc2)OCCC1 [Example 5005]		0.1 to 100	
CC(C)(C)NC(=O)N1CCCOc2ccc(cc2)CNc2nc(nc(OCC(F)(F)F)n2)Nc2ccc(cc2)C(=O)NCC1 [Example 6001]		0.1 to 100	
CC(C)NC(=O)N1CCCOc2ccc(cc2)CNc2nc(nc(OCC(F)(F)F)n2)Nc2ccc(cc2)C(=O)NCC1 [Example 6003]		0.1 to 100	
CC(C)OC(=O)N1CCCOc2ccc(cc2)CNc2nc(nc(OCC(F)(F)F)n2)Nc2ccc(cc2)C(=O)NCC1 [Example 6004]		0.1 to 100	
CCOC(=O)N1CCCOc2ccc(cc2)CNc2nc(nc(OCC(F)(F)F)n2)Nc2ccc(cc2)C(=O)NCC1 [Example 6005]		0.1 to 100	
CCC(=O)N1CCCOc2ccc(cc2)CNc2nc(nc(OCC(F)(F)F)n2)Nc2ccc(cc2)C(=O)NCC1 [Example 6007]		0.1 to 100	
CC(C)C(=O)N1CCCOc2ccc(cc2)CNc2nc(nc(OCC(F)(F)F)n2)Nc2ccc(cc2)C(=O)NCC1 [Example 6008]		0.1 to 100	
CC(C)(C)NC(=O)N1CCCNC(=O)c2ccc(cc2)Nc2nc(nc(OCC(F)(F)F)n2)NCc2ccc(cc2)OCCC1 [Example 6013]		0.1 to 100	
CCOC(=O)N1CCCOc2ccc(cc2)CNc2nc(nc(OCC(F)(F)F)n2)Nc2ccc(cc2)C(=O)NCC(C)(C)C1 [Example 6033]		0.1 to 100	
CCCN1CCCOc2ccc(cc2)CNc2nc(nc(OCC(F)(F)F)n2)Nc2ccc(cc2)C(=O)NCC(C)(C)C1 [Example 6039]		0.1 to 100	
O=C1NCCCCNCCCNc2nc(nc(OCC(F)(F)F)n2)Nc2ccc1cc2 [Example 7001]		1000 to 5000	
O=C1NCCCCCNCCNc2nc(nc(OCC(F)(F)F)n2)Nc2ccc1cc2 [Example 8002]		1000 to 5000	EC50 [4]: > 50000 nM
O=C1NCCCNCCCCCCCCNc2nc(nc(OCC(F)(F)F)n2)Nc2ccc1cc2 [Example 9001]		100 to 1000	EC50 [4]: 243 nM
CC(C)(C)OC(=O)N1CCCCCCCCNc2nc(nc(OCC(F)(F)F)n2)Nc2ccc(cc2)C(=O)NCCC1 [Example 9002]		0.1 to 100	

— patent US8445490B2, “Compounds for the treatment of hepatitis C” (priority 2009, dated 2013)
